# Test results: EP4389827A1, “AMINOGLYCOSIDE-LINKED PHOTOSENSITIZERS” (Centre National de la Recherche Scientifique, priority 2022, dated 2024)
# Where two headings read alike, the source gives them in different places.
# Experiments:
# [1] = Solubility in water; format: physicochemical
# [2] = system: P. aeruginosa PA14; experiment: Antibacterial photodynamic therapy on planktonic cells (CFU count); format: cell-based; conditions: Pseudomonas aeruginosa, PA14, light or radiation study, 0.5 h, irradiated, 5 J/mm^2 (Figure 5a), read-out: Survival drop
# Procedure: (§1) Acinetobacter baumannii DSM30011, Bacillus subtilis 168, Pseudomonas aeruginosa PA14, P. aeruginosa PAO1, Staphylococcus aureus Mu50, S. aureus Newman and S. aureus USA300 were all grown in MHB-CA at 37°C with an agitation of 180 rpm. Candida albicans SC5314 was grown in yeast extract peptone dextrose broth at 35°C with an agitation of 180 rpm.
# (§2) Cells were brought to stationary phase by incubating them in MHB-CA for at least 18 hours at 37°C with 180 rpm and diluted to an optical density of 1.0 just before the experiment. Cells were incubated for 20 minutes with either the compounds, photosensitizers alone, or aminoglycosides alone. Unless stated otherwise, a concentration of 10 µM was used for all experiments and samples were irradiated for 30 minutes at 660 nm with the Solis-660C lamp from ThorLabs, receiving a total of 5 J/mm^2. After illumination, cells were washed with phosphate-buffered saline (PBS) 1X, serially diluted and plated on Mueller-Hinton agar. The next day, colony forming units (CFUs) were counted.
# [3] = system: P. aeruginosa PAO1; experiment: as above; format: cell-based; conditions: Pseudomonas aeruginosa, PAO1, light or radiation study, 0.5 h, 10 µM, irradiated, 5 J/mm^2 (Figure 5c), read-out: Survival drop
# Procedure: as §1, §2
# [4] = system: S. aureus Newman persister cells; experiment: Antibacterial photodynamic therapy on persister cells; format: cell-based, Staphylococcus aureus; conditions: persister cells (24 hours, 1 mM neomycin); irradiated, 5 J/mm^2 (Figure 7a)
# Procedure: Persister plateau and AG concentration varied from one species to another. In S. aureus USA300, a stable plateau was obtained following 6 hours of incubation with 2 mM of neomycin. […] This control is crucial to make sure that a persister state has been achieved. […] As there are no significant differences between irradiated and non-irradiated samples, however, the production of singlet oxygen may not be the factor leading to cell death. In S. aureus Newman, cells were treated for 24 hours with 1 mM of neomycin. […] Although this synergy does exist, like in S. aureus USA300, there is no significant difference in survival for irradiated and non-irradiated samples, except for Ce6.
# [5] = system: A. baumannii DSM30011 persister cells; experiment: as above; format: cell-based, Acinetobacter baumannii; conditions: persister cells (200 µM neomycin, 24 hours); aPDT, irradiated, 5 J/mm^2
# Procedure: Persister cells were obtained after incubation with 200 µM of neomycin for 24 hours.
# [6] = system: P. aeruginosa PA14 persister cells; experiment: as above; format: cell-based, Pseudomonas aeruginosa; conditions: persister cells (1 mM tobramycin, 24 hours); aPDT, 5 J/mm^2
# Procedure: In P. aeruginosa PA14, persister cells were obtained by treating with 1 mM of tobramycin for 24 hours. The effect of aPDT was not as impactful (Figures 9a, 9b), but there was a slight drop of 1.6 and 1.1 log10 CFU/mL for Neo-Ce6 and Tobra-Ce6, respectively.
# [7] = system: B. subtilis 168; experiment: Minimal inhibitory concentration (EUCAST), with or without 660 nm irradiation; format: cell-based, Bacillus subtilis; conditions: read-out: MIC
# Procedure: as §1
# (§3) Minimal inhibitory concentrations (MICs) for selected bacteria were investigated according to the EUCAST guidelines. Serial dilutions of the compounds, photosensitizers and aminoglycosides were made in MHB-CA in 384-well plates. Stationary-phase cells were diluted in MHB-CA to have a final concentration of 5.5 × 10^5 CFU/mL. Samples were incubated in the dark for 20 minutes at 37°C and either irradiated at 660 nm for 30 minutes with a LED device or kept in the dark. Irradiated samples received a total of 168 mJ/mm^2. Plates were then incubated at 37°C for 18 hours and MICs were evaluated visually. Triplicates were done and the synergy, or fractional inhibitory concentration (FIC), was calculated according to Doern et al., 2014: FIC = (MIC of AB)/(MIC of A) + (MIC of AB)/(MIC of B) [formula]
# [8] = system: C. albicans SC5314; experiment: Minimal inhibitory concentration, with or without 660 nm irradiation; format: cell-based; conditions: Candida albicans, SC5314, light or radiation study, 18 h, read-out: MIC
# Procedure: as §1, §3
# [9] = system: E. coli KanR; experiment: Minimal inhibitory concentration (EUCAST), with or without 660 nm irradiation; format: cell-based
# Procedure: as §3
# [10] = system: E. coli pET-29; experiment: as above; format: cell-based
# Procedure: as §3
# [11] = system: K. pneumoniae LM21; experiment: as above; format: cell-based; conditions: read-out: MIC
# Procedure: as §3
# [12] = with (+) irradiation, 660 nm 30 minutes, 168 mJ/mm^2
SMILES,solubility [1],log reduction at 10 µM [2],log reduction at 10 µM [3],persister cell survival (in words) [4],drop [5],drop [6],"MIC ([7]; Bacillus subtilis, 168, light or radiation study, 18 h, without (-) irradiation)","MIC [7, 12]","MIC [8, 12]",MIC ([8]; without (-) irradiation),"MIC ([9]; Escherichia coli, light or radiation study, 18 h)","MIC [9, 12]","MIC ([10]; Escherichia coli, PET29, light or radiation study, 18 h, without (-) irradiation)","MIC [10, 12]","MIC ([11]; Klebsiella pneumoniae, LM21, light or radiation study, 18 h, without (-) irradiation)","MIC [11, 12]"
C=Cc1c(C)c2cc3nc(c(CC(=O)O)c4[nH]c(cc5nc(cc1[nH]2)C(C)=C5CC)c(C)c4C(=O)O)[C@@H](CCC(=O)NC[C@H]1O[C@H](O[C@@H]2[C@@H](O)[C@H](O[C@H]4O[C@H](CN)[C@@H](O)C[C@H]4N)[C@@H](N)C[C@H]2N)[C@H](O)[C@@H](N)[C@@H]1O)[C@@H]3C [Tobra-Ce6],highly soluble,2.6,3.5,significantly lower than in cells treated with Ce6 alone,1.8 log10 CFU/mL,1.1 log10 CFU/mL,–,–,–,–,–,–,–,–,–,–
"C=Cc1c(C)c2cc3nc(c(CC(=O)O)c4[nH]c(cc5nc(cc1[nH]2)C(C)=C5CC)c(C)c4C(=O)O)[C@@H](CCC(=O)O)[C@@H]3C [Ce6, chlorin e6]",poorly soluble in water,–,–,–,–,–,> 64 µM,> 64 µM,32 µM,> 64 µM,> 64 µM,> 64 µM,> 64 µM,> 64 µM,> 64 µM,> 64 µM
